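All cell lines were grown in 96-well plates and treated with compound for 48 hours. TGI is the concentration that stops growth completely.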
Assays:
Experiment in all cases: inhibition of tumour cell growth, NCI panel, 48 h
A498 renal = system: A498 renal
A549 NSCLC = system: A549 NSCLC
ACHN renal = system: ACHN renal
CAKI-1 renal = system: CAKI-1 renal
CCRF-CEM leukemia = system: CCRF-CEM leukemia
DMS 114 small cell lung = system: DMS 114 small cell lung
DMS 273 small cell lung = system: DMS 273 small cell lung
EKVX NSCLC = system: EKVX NSCLC
HCT-116 colon = system: HCT-116 colon
HCT-15 colon = system: HCT-15 colon
HL-60(TB) leukemia = system: HL-60(TB) leukemia
HOP-92 NSCLC = system: HOP-92 NSCLC
HT29 colon = system: HT29 colon
IGROV1 ovarian = system: IGROV1 ovarian
K-562 leukemia = system: K-562 leukemia
KM12 colon = system: KM12 colon
KM20L2 colon = system: KM20L2 colon
LOX IMVI melanoma = system: LOX IMVI melanoma
M14 melanoma = system: M14 melanoma
M19-MEL melanoma = system: M19-MEL melanoma
MOLT-4 leukemia = system: MOLT-4 leukemia
NCI-H226 lung = system: NCI-H226 lung
NCI-H23 lung = system: NCI-H23 lung
NCI-H460 lung = system: NCI-H460 lung
NCI-H522 lung = system: NCI-H522 lung
OVCAR-3 ovarian = system: OVCAR-3 ovarian
OVCAR-4 ovarian = system: OVCAR-4 ovarian
OVCAR-5 ovarian = system: OVCAR-5 ovarian
OVCAR-8 ovarian = system: OVCAR-8 ovarian
RPMI-8226 leukemia = system: RPMI-8226 leukemia
RXF 393 renal = system: RXF 393 renal
RXF-631 renal = system: RXF-631 renal
SF-268 CNS = system: SF-268 CNS
SF-295 CNS = system: SF-295 CNS
SF-539 CNS = system: SF-539 CNS
SK-MEL-28 melanoma = system: SK-MEL-28 melanoma
SK-MEL-5 melanoma = system: SK-MEL-5 melanoma
SK-OV-3 ovarian = system: SK-OV-3 ovarian
SN12C renal = system: SN12C renal
SNB-19 CNS = system: SNB-19 CNS
SNB-75 CNS = system: SNB-75 CNS
SNB-78 CNS = system: SNB-78 CNS
TK-10 renal = system: TK-10 renal
U251 CNS = system: U251 CNS
UACC-257 melanoma = system: UACC-257 melanoma
UACC-62 melanoma = system: UACC-62 melanoma
UO-31 renal = system: UO-31 renal
786-0 renal = system: 786-0 renal
COLO 205 colon = system: COLO 205 colon
DLD-1 colon = system: DLD-1 colon
HOP-18 NSCLC = system: HOP-18 NSCLC
HOP-62 NSCLC = system: HOP-62 NSCLC
MALME-3M melanoma = system: MALME-3M melanoma
SK-MEL-2 melanoma = system: SK-MEL-2 melanoma
SR leukemia = system: SR leukemia
SW-620 colon = system: SW-620 colon
XF 498 CNS = system: XF 498 CNS

Measured: TGI

O=C1CCCCC2N(C(c3ccccc3)c3ccccc3)CC[C@@]12c1ccccc1 (mixture of isomers)
9.31 µM: RPMI-8226 leukemia
9.4 µM: HL-60(TB) leukemia
not listed: 786-0 renal | COLO 205 colon | DLD-1 colon | HOP-18 NSCLC | HOP-62 NSCLC | MALME-3M melanoma | SK-MEL-2 melanoma | SR leukemia | SW-620 colon | XF 498 CNS
> 10 µM: all other assays above

CC(C)c1cc2c(O)c(c1)Cc1cc(C(C)C)cc(c1O)Cc1cc(C(C)C)cc(c1O)Cc1cc(C(C)C)cc(c1O)C2
not listed: ACHN renal | M14 melanoma | RXF-631 renal | SK-MEL-28 melanoma | SN12C renal
> 100 µM: all other assays above
